From patent US20230114854A1, “CHIMERIC ANTIGEN RECEPTOR TARGETING B-CELL MATURATION ANTIGEN AND USE THEREOF” (CELLGENTEK CO., LTD., priority 2020, published 2023) come the findings set out here.

The subject of data set [1] is multiple myeloma cell line H929 xenograft. The following applies: for growth inhibition rate (GIR (%)) versus untreated group (Vehicle): Day 17, NK cells 1×10^7 cells i.v. ×3, Velcade and Darzalex 0.5 mg/kg i.p. ×5. As to the method:
In a xenograft animal model using NOD.Cg-Prkdcscid Il2rgtm1Wj1/SzJ (NSG) mouse (Jackson Laboratory, Jax #00557 strain), the anticancer efficacy of BCMA-CAR NK cells expressing BCMA-CAR1 was evaluated.
After subcutaneous implantation of multiple myeloma cell line H929 with high BCMA expression, when the tumor size reached 150 mm^3 (10 days post implantation), 5 mice were randomly assigned to each group, and once every 5 days, BCMA-CAR NK cells or control NK cells (NKvec) were administered at a concentration of 1×10^7 cells via intravenous tail vein injection (i.v.) in a total of 3 administrations. Here, a proteasome inhibitor, Velcade® (ingredient name: Bortezomib) and an antibody medication, Darzalex® (ingredient name: Daratumumab) being used as treatment medications for multiple myeloma patients were used as control drugs, and Velcade® (Vel) and Darzalex® (Dara) were each administered at a concentration of 0.5 mg/kg via intraperitoneal (i.p.) route, once every 3-4 days, in a total of 5 administrations.

Data set [2] deals with BCMA expressed on multiple myeloma cells (H929, MM1.R, OPM-2) (UniProt Q02223). The data set is described as follows: cell-based or functional assay.

Several values for one entry are separate records, joined by “and”; a condition that tells them apart may be missing. Equal entries are not always repeated.

UniProt Q02223, sequence (Q02223 whole entry): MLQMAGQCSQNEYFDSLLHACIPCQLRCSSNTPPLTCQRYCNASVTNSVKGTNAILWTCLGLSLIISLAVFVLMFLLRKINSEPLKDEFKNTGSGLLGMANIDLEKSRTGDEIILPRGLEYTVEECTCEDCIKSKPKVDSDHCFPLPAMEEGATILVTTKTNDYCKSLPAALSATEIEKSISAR

Regarding `CC(C)C[C@H](NC(=O)[C@H](Cc1ccccc1)NC(=O)c1cnccn1)B(O)O` [Velcade, Bortezomib], in data set [1], the “growth inhibition rate (GIR (%)) versus untreated group (Vehicle)” value turned out to be 39%. Besides, in data set [1] (mouse, in vivo), the “toxicity (body weight)” value is given as “toxicity i.e., a decrease in body weight”. Turning to Daratumumab [Darzalex], in data set [1], the “growth inhibition rate (GIR (%)) versus untreated group (Vehicle)” value is listed as 23%.

B1: BCMA-CAR3 (protein)
chain: EVQLLESGGGLVQPGGSLRLSCAASGFTFSDYGLSWVRQAPGKGLEWVSLIDSSGSSTFYADSVKGRFTISRDNSKNTLYLQMNSLRAEDTAVYYCAKEHGLFDSWGQGTLVTVSSGSTSGSGKPSGEGSTKGEIVLTQSPGTLSLSPGERATLSCKASQDIDDDINWYQQKPGQAPRLLIYDASLRATGIPDRFSGSGSGTDFTLTISRLEPEDFAVYYCQQSLRTPITFGQGTKLEIKRALSNSIMYFSHFVPVFLPAKPTTTPAPRPPTPAPTIASQPLSLRPEASRPAAGGAVHTRGLDKPFWVLVVVGGVLACYSLLVTVAFIIFWVRSKRSRLLHSDYMNMTPRRPGPTRKHYQPYAPPRDFAAYRSGGGGSKRGRKKLLYIFKQPFMRPVQTTQEEDGCSCRFPEEEEGGCELGGGGSRVKFSRSADAPAYQQGQNQLYNELNLGRREEYDVLDKRRGRDPEMGGKPRRKNPQEGLYNELQKDKMAEAYSEIGMKGERRRGKGHDGLYQGLSTATKDTYDALHMQALPPR
On to B1, for which the cytolytic activity toward multiple myeloma cells (H929, MM1.R, OPM-2), versus control NK cells (NKvec) in data set [2] is 3 to 4 times and > 4 times.

B2: BCMA-CAR4 (protein)
chain: EVQLLESGGGLVQPGGSLRLSCAASGFTFSGHYWSWVRQAPGKGLEWVSTVSGSGGDTFYADSVKGRFTISRDNSKNTLYLQMNSLRAEDTAVYYCARGHSVMDVWGQGTLVTVSSGSTSGSGKPSGEGSTKGEIVLTQSPGTLSLSPGERATLSCRASQGIDSYVAWYQQKPGQAPRLLIYDASLRATGIPDRFSGSGSGTDFTLTISRLEPEDFAVYYCQQYNSWPITFGQGTKLEIKRALSNSIMYFSHFVPVFLPAKPTTTPAPRPPTPAPTIASQPLSLRPEASRPAAGGAVHTRGLDKPFWVLVVVGGVLACYSLLVTVAFIIFWVRSKRSRLLHSDYMNMTPRRPGPTRKHYQPYAPPRDFAAYRSGGGGSKRGRKKLLYIFKQPFMRPVQTTQEEDGCSCRFPEEEEGGCELGGGGSRVKFSRSADAPAYQQGQNQLYNELNLGRREEYDVLDKRRGRDPEMGGKPRRKNPQEGLYNELQKDKMAEAYSEIGMKGERRRGKGHDGLYQGLSTATKDTYDALHMQALPPR
Take B2: the cytolytic activity toward multiple myeloma cells (H929, MM1.R, OPM-2), versus control NK cells (NKvec) in data set [2] is 3 to 4 times and > 4 times.

B3: BCMA-CAR2 (protein)
chain: EVQLLESGGGLVQPGGSLRLSCAASGFTFSNYGVHWVRQAPGKGLEWVSYISYSGGTYYNPSLKSRFTISRDNSKNTLYLQMNSLRAEDTAVYYCARDSDDFGFDYWGQGTLVTVSSGSTSGSGKPSGEGSTKGQSVLTQPPSASGTPGQRVTISCQGDSLRSYYVNWYQQLPGTAPKLLIYDHSKRPTGVPDRFSGSKSGTSASLAISGLRSEDEADYYCQSYDSSTVVFGGGTKLTVLGALSNSIMYFSHFVPVFLPAKPTTTPAPRPPTPAPTIASQPLSLRPEASRPAAGGAVHTRGLDKPFWVLVVVGGVLACYSLLVTVAFIIFWVRSKRSRLLHSDYMNMTPRRPGPTRKHYQPYAPPRDFAAYRSGGGGSKRGRKKLLYIFKQPFMRPVQTTQEEDGCSCRFPEEEEGGCELGGGGSRVKFSRSADAPAYQQGQNQLYNELNLGRREEYDVLDKRRGRDPEMGGKPRRKNPQEGLYNELQKDKMAEAYSEIGMKGERRRGKGHDGLYQGLSTATKDTYDALHMQALPPR
Consider B3, for which the cytolytic activity toward multiple myeloma cells (H929, MM1.R, OPM-2), versus control NK cells (NKvec) in data set [2] is 3 to 4 times and > 4 times.
